Where a SMILES comes first, the peptide text is derived from it. Bridges are numbered along the chain shown (N, C = ends). [ ]: non-standard residue; d: D form. The star is where a group is joined. hPhe(3,5-F2-4-CF3) = N[C@@H](CCc1cc(F)c(C(F)(F)F)c(F)c1)C(=O)O; hPhe(3-Cl-4-CF3) = N[C@@H](CCc1ccc(C(F)(F)F)c(Cl)c1)C(=O)O; NPrPhe(4-CF3) = CCCN[C@@H](Cc1ccc(C(F)(F)F)cc1)C(=O)O; NEtPhe(4-CF3) = CCN[C@@H](Cc1ccc(C(F)(F)F)cc1)C(=O)O; NMePhe(4-F) = CN[C@@H](Cc1ccc(F)cc1)C(=O)O; NMeGly(cPent) = CN[C@H](C(=O)O)C1CCCC1; Hyp = O=C(O)[C@@H]1C[C@@H](O)CN1; NMeD = CN[C@@H](CC(=O)O)C(=O)O; Ac4c(3-oxa) = NC1(C(=O)O)COC1; NMeL = CN[C@@H](CC(C)C)C(=O)O; Morpholide = C1CN(*)CCO1; NMeA = CN[C@@H](C)C(=O)O; Ac5c = NC1(C(=O)O)CCCC1; Aze = O=C(O)[C@@H]1CCN1; Ac4c = NC1(C(=O)O)CCC1; Ac3c = NC1(C(=O)O)CC1; Sar = CNCC(=O)O
Key:
[1] = test system: human lung cancer strain NCI-H441; type: cell-based
Method in brief: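 Step one: dispense the test compound in serial DMSO dilutions. Step three: add the reagent and measure […].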

[2] = molecular target: GDP-bound NRAS wild-type protein (Homo sapiens, UniProt P01111); experiment: Binding to NRAS by surface plasmon resonance (SPR), KD and KD ratio to KRAS
GDP-bound NRAS wild-type protein, sequence (P01111 whole entry): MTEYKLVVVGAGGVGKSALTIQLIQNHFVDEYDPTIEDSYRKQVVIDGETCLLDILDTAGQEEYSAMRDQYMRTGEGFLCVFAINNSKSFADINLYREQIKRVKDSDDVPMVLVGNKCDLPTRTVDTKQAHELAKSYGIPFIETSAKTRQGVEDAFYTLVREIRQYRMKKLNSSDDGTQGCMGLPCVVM
Method in brief: (§1)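 Running buffer contained 10 µM GDP and 10 mM MgCl2 to keep RAS in the GDP state, with 4% DMSO at pH 7.4. Compounds were flowed at 100 µL/min in 75 s steps of rising concentration over captured biotin-Avi RAS at 30°C. Sensorgrams were fitted 1:1 for KD.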

HRAS wild-type protein = HRAS wild-type protein (Homo sapiens, UniProt P01112); experiment: Binding to HRAS by surface plasmon resonance (SPR), KD and KD ratio to KRAS
HRAS wild-type protein, sequence (P01112 whole entry): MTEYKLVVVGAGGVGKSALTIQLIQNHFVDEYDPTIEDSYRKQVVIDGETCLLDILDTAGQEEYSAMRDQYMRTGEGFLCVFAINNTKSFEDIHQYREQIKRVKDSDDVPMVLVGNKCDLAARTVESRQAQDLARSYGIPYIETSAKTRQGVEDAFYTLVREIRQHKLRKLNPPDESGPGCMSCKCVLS
Method in brief: as §1

[3] = ratio of KD for GDP-bound NRAS wild-type protein to KD for KRAS
[4] = ratio of KD for HRAS wild-type protein to KD for KRAS
[5] = ratio of the KD value with respect to GDP-bound NRAS wild-type protein to the KD value with respect to KRAS
[6] = ratio of the KD value with respect to HRAS wild-type protein to the KD value with respect to KRAS

IC50 [1] [nM]	SMILES	NRAS /KRAS [2, 3]	HRAS /KRAS (HRAS wild-type protein; [4])	NRAS /KRAS [2, 5]	HRAS /KRAS (HRAS wild-type protein; [6])
5	CCC[C@H]1C(=O)N[C@@H]([C@@H](C)CC)C(=O)N(C)CC(=O)N(C)[C@H]2C/C=C\CCN(C2=O)[C@@H](Cc2ccc(C(F)(F)F)cc2)C(=O)N(C)CC(=O)N[C@@H](CCc2ccc(C(F)(F)F)c(Cl)c2)C(=O)N2CC3(CC3)C[C@H]2C(=O)NC2(CC(C)(C)C2)C(=O)N(C)[C@@H](CC(C)(C)C)C(=O)N(C)[C@H](C(=O)N(C)C)CC(=O)N1C [PP2979]	A (a compound having 10 or more and less than 20 is denoted as A)	B (a compound having 3 or more and less than 10 is denoted as B)		
26.6	CC[C@H](C)[C@@H]1NC(=O)[C@H](CC(C)C)N(C)C(=O)C[C@@H](C(=O)N2CCOCC2)N(C)C(=O)[C@H](C2CCCC2)N(C)C(=O)C2(CCCC2)NC(=O)[C@@H]2CCCN2C(=O)[C@H](CCc2ccc(C(F)(F)F)c(Cl)c2)NC(=O)CN(C)C(=O)[C@H](Cc2ccc(F)cc2)N(C)C(=O)CN(C)C(=O)CN(C)C1=O [PP0212] ([NMeL]I[Sar][Sar][NMePhe(4-F)][Sar][hPhe(3-Cl-4-CF3)]P[Ac5c][NMeGly(cPent)][NMeD]-Morpholide; lactam N-11)	C (A compound having a KD ratio of 0.1 or more and less than 3 is denoted as C)	C (A compound having a KD ratio of 0.1 or more and less than 3 is denoted as C)		
0.9	CCCN1C(=O)CN(C)C(=O)CN(C)C(=O)[C@H]([C@@H](C)CC)NC(=O)[C@H](CC(C)C)N(C)C(=O)C[C@@H](C(=O)N2CCOCC2)N(C)C(=O)[C@H](C2CCCC2)N(C)C(=O)C2(CCC2)NC(=O)[C@@H]2C[C@@H](OCC)CN2C(=O)[C@H](CCc2ccc(C(F)(F)F)c(Cl)c2)NC(=O)CN(C)C(=O)[C@@H]1Cc1ccc(C(F)(F)F)cc1 [PP0392] ([NMeL]I[Sar][Sar][NPrPhe(4-CF3)][Sar][hPhe(3-Cl-4-CF3)][Hyp](Et)[Ac4c][NMeGly(cPent)][NMeD]-Morpholide; lactam N-11)			B (a compound having 3 or more and less than 10 is denoted as B)	C (A compound having a KD ratio of 0.1 or more and less than 3 is denoted as C)

More lines, now with the values behind:

SMILES	IC50 [1] [nM]	NRAS /KRAS [2, 3]	HRAS /KRAS (HRAS wild-type protein; [4])	NRAS /KRAS [2, 5]	HRAS /KRAS (HRAS wild-type protein; [6])
CC[C@H](C)[C@@H]1NC(=O)[C@H](CC(C)C)N(C)C(=O)C[C@@H](C(=O)N2CCOCC2)N(C)C(=O)[C@H](C2CCCC2)N(C)C(=O)C2(CC2)NC(=O)[C@@H]2CCCN2C(=O)[C@H](CCc2ccc(C(F)(F)F)c(Cl)c2)NC(=O)CN(C)C(=O)[C@H](Cc2ccc(C(F)(F)F)cc2)N(CC)C(=O)[C@@H]2CCN2C(=O)[C@H](C)N(C)C1=O [PP0220] ([NMeL]I[NMeA][Aze][NEtPhe(4-CF3)][Sar][hPhe(3-Cl-4-CF3)]P[Ac3c][NMeGly(cPent)][NMeD]-Morpholide; lactam N-11)	7.7	C (A compound having a KD ratio of 0.1 or more and less than 3 is denoted as C)	C (A compound having a KD ratio of 0.1 or more and less than 3 is denoted as C)		
CCCN(C)C(=O)[C@@H]1CC(=O)N(C)[C@@H](CC)C(=O)N[C@@H]([C@@H](C)CC)C(=O)N(C)CC(=O)N(C)[C@H]2C/C=C\CCN(C2=O)[C@@H](Cc2ccc(C(F)(F)F)cc2)C(=O)N(C)CC(=O)N[C@@H](CCc2cc(F)c(C(F)(F)F)c(F)c2)C(=O)N2CC[C@H]2C(=O)NC2(CCC2)C(=O)N(C)[C@@H](C2CCCC2)C(=O)N1C [PP2915]	129	A (a compound having 10 or more and less than 20 is denoted as A)	A (a compound having 10 or more and less than 20 is denoted as A)		
CCCN1C(=O)CN(C)C(=O)CN(C)C(=O)[C@H]([C@@H](C)CC)NC(=O)[C@H](CC(C)C)N(C)C(=O)C[C@@H](C(=O)N(C)C)N(C)C(=O)[C@H](C2CCCC2)N(C)C(=O)C2(COC2)NC(=O)[C@@H]2CCCN2C(=O)[C@H](CCc2cc(F)c(C(F)(F)F)c(F)c2)NC(=O)CN(C)C(=O)[C@@H]1Cc1ccc(C(F)(F)F)cc1 [PP0744] ([NMeL]I[Sar][Sar][NPrPhe(4-CF3)][Sar][hPhe(3,5-F2-4-CF3)]P[Ac4c(3-oxa)][NMeGly(cPent)][NMeD]-NMe2; lactam N-11)	57			B (a compound having 3 or more and less than 10 is denoted as B)	B (a compound having 3 or more and less than 10 is denoted as B)
CCCN1C(=O)CN(C)C(=O)CN(C)C(=O)[C@H]([C@@H](C)CC)NC(=O)[C@@H]2CCCCOc3ccc(cc3)C[C@H]1C(=O)N(C)CC(=O)N[C@@H](CCc1cc(F)c(C(F)(F)F)c(F)c1)C(=O)N1C[C@H](OCC)C[C@H]1C(=O)NC1(CCCC1)C(=O)N(C)[C@@H](C1CCCC1)C(=O)N(C)[C@H](C(=O)N(C)C)CC(=O)N2C [PP0894]	3.7	C (A compound having a KD ratio of 0.1 or more and less than 3 is denoted as C)	C (A compound having a KD ratio of 0.1 or more and less than 3 is denoted as C)		
